Values of other authors in Sander's compilation of Henry's law constants (doi:10.2175/wer.65.7.2).

test: Henry solubility constant Hcp at 293 K (mol/(m3 Pa)); conditions: reference: Smith et al. (1993); cited value

| Compound | Henry solubility constant Hcp at 293 K |
| --- | --- |
| c1ccccc1 [benzene] | 0.0018 |
| Cc1ccccc1 [methylbenzene] | 0.0017 |

test: Henry solubility constant Hcp at 294 K (mol/(m3 Pa)); conditions: reference: Smith et al. (1993); cited value

| Henry solubility constant Hcp at 294 K | Compound |
| --- | --- |
| 0.25 | c1ccc2c(c1)ccc1ccccc12 [phenanthrene] |

test: Henry solubility constant Hcp at 298.15 K (mol/(m3 Pa)); conditions: reference: Smith et al. (1993); cited value

| Compound | Henry solubility constant Hcp |
| --- | --- |
| Cc1ccc(O)c(C)c1 [1-hydroxy-2,4-dimethylbenzene] | 0.58 |
| c1cc2c3c(cccc3c1)CC2 [acenaphthene] | 0.041 |
| C1=Cc2cccc3cccc1c23 [acenaphthylene] | 0.087 |
| c1ccc2c(c1)cc1ccc3cccc4ccc2c1c34 [benzo[a]pyrene] | 20 |
| c1ccc2c(c1)-c1cccc3cccc-2c13 [benzo[jk]fluorene] | 1.5 |
| c1ccc2cc3c(cc2c1)-c1cccc2cccc-3c12 [benzo[k]fluoranthene] | 0.25 |

The next lines start with the values.

| Henry solubility constant Hcp | Compound |
| --- | --- |
| 0.084 | c1ccc2c(c1)Cc1ccccc1-2 [2,3-benzindene] |
| 0.11 | c1ccc2cc3ccccc3cc2c1 [anthracene] |
| 0.83 | c1ccc2c(c1)-c1cccc3c1c-2cc1ccccc13 [benzo[b]fluoranthene] |
| 180 | c1cc2ccc3ccc4ccc5cccc6c(c1)c2c3c4c56 [benzo[ghi]perylene] |
| 9.4 | c1ccc2c(c1)ccc1c3ccccc3ccc21 [chrysene] |
| 140 | c1ccc2c(c1)ccc1cc3c(ccc4ccccc43)cc12 [dibenz[a,h]anthracene] |
| 140 | c1ccc2c(c1)-c1ccc3ccc4cccc5cc-2c1c3c45 [indeno[1,2,3-cd]pyrene] |
| 0.02 | c1ccc2ccccc2c1 [naphthalene] |
